Test results as given in patent US20260069694A1, “IDENTIFICATION OF HIGHLY IMMUNOSUPRESIVE TREG POPULATION IN TUMOR MICROENVIRONMENTS” (THE TRUSTEES OF COLUMBIA UNIVERSITY IN THE CITY OF NEW YORK, priority 2023, published 2026).

Key:
naïve CD4+ T cells = assay: iTreg induction from naive CD4+ T cells with TGF-βR1 inhibitor; type: cell-based, mouse
Procedure: (§1) Naïve CD4^+ T cells and nTregs were isolated from the spleen of healthy C57B6129SF1/J mice by magnetic separation using a mouse CD4+ T cell isolation kit and PE-conjugated anti-mouse CD25 with anti-PE magnetic separation micro beads (Miltenyi Biotec™). The isolated T cells were stimulated with anti-CD3/CD28 beads (×25 dilution; Miltenyi Biotec™) in the presence or absence of recombinant mouse TGF-β1 (5 ng/ml; Bio-Techne™ Corporation) for 3 days. iRGD (100 μM) or iRGE (100 μM) peptide was added to the cultures in some experiments. To study the effect of TGF-β1 on the induction of αvβ5 integrin+ iTregs, naïve CD4+ T cells were cultured with anti-CD3/CD28 beads (x 25 dilution) and TGF-β1 (5 ng/ml) in the presence or absence of varying concentrations of a TGF-βR1 inhibitor (LY2157299; Selleck™ Chemicals LLC). To study the effect of TCR stimulation on the induction of αvβ5 integrin+ iTregs, naïve CD4+ T cells treated with varying concentrations of plate-coated anti-mouse CD3 Ab (eBioscience™) in the presence of soluble anti-mouse CD28 Ab (2 μg/ml) (eBioscience™) and TGF-β1 (5 ng/ml). The cells were subjected to flow cytometry as described elsewhere.
Naive CD4+ T cells isolated from healthy mice were expanded in the presence of anti-CD3/CD28 Abs, exogenous TGF-β1, and increasing doses of a TGF-βR1 inhibitor (LY2157299). […] The bar diagram of FIG. 25B summarizes the results from 3 independent experiments. The statistical analysis used was one-way ANOVA; p<0.0001 (0 vs 1), p<0.0001 (1 vs 3), p=0.0154 (3 vs 10).
The bar diagram of FIG. 26B summarizes the results from 3 independent experiments. The statistical analysis used was one-way ANOVA; p=0.3996 (αvβ5, 0 vs 1), p=0.5868 (αvβ5, 0 vs 3), p=0.2265 (NRP-1, 0 vs 1), p=0.5751 (NRP-1, 0 vs 3). The error bars indicate the mean±standard error; *p<0.05; ****p<0.0001; N.S., not significant.

[1] = system: naïve CD4+ T cells / CD4+CD25+Foxp3+ iTregs; assay: iTreg induction from naive CD4+ T cells in the absence or presence of iRGD or iRGE; type: cell-based, mouse
Procedure: as §1
For the data presented in FIG. 31, FIG. 32A, and FIG. 32B, naïve CD4+ T cells were stimulated with anti-CD3/CD28 Abs and TGF-β1 in the absence or presence of iRGD or iRGE. Flow cytometry was performed to quantify the proportion of CD4+CD25+Foxp3+ iTregs (see FIG. 31) and αvβ5 integrin+ cells among the iTregs (See FIG. 32A). Apoptosis of αvβ5 integrin+ iTregs was quantitated by measuring cleaved caspase 3 using flow cytometry (see FIG. 32B; n=3).
To investigate whether iRGD Reduces CD4+CD25+Foxp3+ iTregs in an RGD-Dependent Manner in Vitro, naïve CD4+ T cells were stimulated with anti-CD3/CD28 Abs and TGF-β1 in the absence or presence of the iRGD or iRGE peptide. The resulting cells were subjected to flow cytometry to analyze the expression of CD25 and Foxp3 in the CD4+ T cells (FIG. 33A) and the expression of the αvβ5 integrin and NRP-1 on CD4+CD25+Foxp3+ iTregs (FIG. 33B). The bar diagram in (FIG. 33C) summarizes the proportion of NRP-1+ cells among the iTregs. The statistical analysis used was the one-way ANOVA; p=0.8221. n=3 per group.
The proportion of apoptotic αvβ5 integrin+ iTregs (FIG. 34) and CD4+Foxp3neg T cells (FIG. 35) was quantitated by measuring cleaved caspase 3 using flow cytometry. The statistical analysis used was Welch's t test; p=0.0705 (n=3). The dot plots and histograms of FIG. 33C and FIG. 35 show representative data from the 3 independent experiments. The error bars indicate the mean±standard error; N.S., not significant.

[2] = peptide 100 μM, anti-CD3/CD28 Abs and TGF-β1

Row | Compound | proportion of the NRP-1-positive iTregs (naïve CD4+ T cells; among iTregs) | proportion of the αvβ5-positive iTregs (naïve CD4+ T cells; among iTregs) | development of iTregs (CD4+Foxp3+ T cells) from naïve CD4+ T cells (naïve CD4+ T cells; anti-CD3/CD28 Abs, exogenous TGF-β1, increasing doses of inhibitor) | apoptosis of CD4+Foxp3neg T cells (cleaved caspase 3) ([1]; flow cytometry) | proportion of CD4+CD25+Foxp3+ iTregs [1, 2] | αvβ5 integrin-positive population among the iTregs [1, 2]
1 | Cc1cccc(-c2nn3c(c2-c2ccnc4ccc(C(N)=O)cc24)CCC3)n1 [LY2157299] | did not affect | did not affect | suppressed the development of iTregs from naïve CD4+ T cells in a dose-dependent manner |  |  | 
2 | CRGEKGPDC [iRGE, an iRGD variant that lacks the RGD motif, reference compound] |  |  |  | Neither iRGD nor iRGE increased the apoptosis | ineffective | ineffective
